# Data from patent US10364226B2, “Pyridazinone compounds and uses thereof” (priority 2013, dated 2019).
# Columns and labels:
# EN PA = EN PA (Influenza A virus, UniProt P15659); test: EN PA FRET Inhibition Assay; format: biochemical; conditions: read-out: Potency
# [1] = system: Influenza strain A549 A/WSN/33 (H1N1); test: Influenza Antiviral Assay; format: cell-based, Influenza A virus; conditions: Influenza A virus, A549, 20 h, neuraminidase fluorescence readout, read-out: % Inhibition
Compound,IC50 (EN PA),EC50 [1]
CNC(=O)c1nn(CC2(n3ccc4cc(C5CC5)cnc43)CCCC2)cc(O)c1=O [Compound 754],< 100 nM,< 20000 nM
CCCc1cnc2c(ccn2C2(Cn3cc(O)c(=O)c(C(=O)NC)n3)CCCC2)c1 [Compound 755],< 100 nM,< 20000 nM
CCCNC(=O)c1nn(CC2(n3cc(C)c4cccnc43)CCCC2)cc(O)c1=O [Compound 756],< 100 nM,< 20000 nM
Cc1cn(C2(Cn3cc(O)c(=O)c(C(=O)NCc4ccc(F)c(Cl)c4)n3)CCCC2)c2ncccc12 [Compound 757],< 100 nM,< 20000 nM
NC(=O)c1nn(CC2(n3cc(Cl)c4cccnc43)CCCC2)cc(O)c1=O [Compound 758],< 100 nM,< 20000 nM
Cc1cn(C2(Cn3cc(O)c(=O)c(C(=O)NCCCO)n3)CCCC2)c2ncccc12 [Compound 759],< 100 nM,< 20000 nM
O=C(NCC1CC1)c1nn(CC2(n3cc(Cl)c4cccnc43)CCCC2)cc(O)c1=O [Compound 760],< 100 nM,< 20000 nM
Cc1cn(C2(Cn3cc(O)c(=O)c(C(=O)NCCO)n3)CCCC2)c2ncccc12 [Compound 761],< 100 nM,< 20000 nM
C=Cc1ccc(C2(Cn3cc(O)c(=O)c(C(=O)NC)n3)CCCC2)cc1 [Compound 762],< 100 nM,< 20000 nM
CNC(=O)c1nn(CC2(n3cc(C)c4cccnc43)CCCC2)cc(OC(=O)OCC(C)C)c1=O [Compound 764],< 100 nM,< 20000 nM
CNC(=O)c1nn(CC2(n3cc(C)c4cccnc43)CCCC2)cc(OC(=O)N(C)C)c1=O [Compound 765],≥ 1000 nM,20000 to 100000 nM
CC(C)(C)NC(=O)c1nn(CC2(n3cc(Cl)c4cccnc43)CCCC2)cc(O)c1=O [Compound 766],< 100 nM,< 20000 nM
CNC(=O)c1nn(CC2(c3cc(Cl)cc(C(F)(F)F)c3)CCCC2)cc(O)c1=O [Compound 768],< 100 nM,< 20000 nM
C[C@@H](NC(=O)c1nn(CC2(n3cc(Cl)c4cccnc43)CCCC2)cc(O)c1=O)C(F)(F)F [Compound 771],100 to 1000 nM,< 20000 nM
C[C@H](NC(=O)c1nn(CC2(n3cc(Cl)c4cccnc43)CCCC2)cc(O)c1=O)C(F)(F)F [Compound 772],100 to 1000 nM,< 20000 nM
Cc1cn(C2(Cn3cc(O)c(=O)c(C(=O)N4CCC4)n3)CCCC2)c2ncccc12 [Compound 773],< 100 nM,< 20000 nM
CON(C)C(=O)c1nn(CC2(n3cc(C)c4cccnc43)CCCC2)cc(O)c1=O [Compound 774],< 100 nM,< 20000 nM
CCOC(=O)Oc1cn(CC2(n3cc(C)c4cccnc43)CCCC2)nc(C(=O)NC)c1=O [Compound 775],< 100 nM,< 20000 nM
CNC(=O)c1nn(CC2(c3ccccc3)CCC(C)(C)C2)cc(O)c1=O (centres unmarked) [Compound 776],< 100 nM,< 20000 nM
CNC(=O)c1nn(CC2(c3ccc4ccccc4c3)CCCC2)cc(O)c1=O [Compound 777],< 100 nM,< 20000 nM
CNC(=O)c1nn(CC2(c3ccccc3)CC(C)(C)C2)cc(O)c1=O [Compound 778],< 100 nM,20000 to 100000 nM
Cc1c(O)c(=O)c(C(=O)O)nn1CCc1ccccc1 [Compound 782],< 100 nM,> 100000 nM
CNC(=O)c1nn(CC2(c3ccc(F)c(C(F)(F)F)c3)CCCC2)cc(O)c1=O [Compound 783],< 100 nM,< 20000 nM

Compound,IC50 (EN PA),EC50 [1]
O=C(NCc1ccc(F)c(Cl)c1)c1nn(CC2(c3ccc(Cl)c(Cl)c3)CCCC2)cc(O)c1=O [Compound 784],100 to 1000 nM,< 20000 nM
CC1(C)CC(Cn2cc(O)c(=O)c(C(=O)O)n2)(c2ccccc2)C1 [Compound 785],< 100 nM,> 100000 nM
CC1(C)CCC(Cn2cc(O)c(=O)c(C(=O)O)n2)(c2ccccc2)C1 (centres unmarked) [Compound 786],< 100 nM,> 100000 nM
CNC(=O)c1nn(CC2(n3cc(C)c4cccnc43)CCCCC2)cc(O)c1=O [Compound 788],< 100 nM,< 20000 nM
CNC(=O)c1nn(CC2(n3cc(C)c4cccnc43)CCCC2)cc(OC(=O)OC(C)(C)C)c1=O [Compound 789],< 100 nM,< 20000 nM
CNC(=O)c1nn(CC2(n3c(C)cc4cccnc43)CCCC2)cc(O)c1=O [Compound 790],< 100 nM,< 20000 nM
CCCC(Cn1cc(O)c(=O)c(C(=O)NC)n1)n1cc(C)c2cccnc21 (centres unmarked) [Compound 791],100 to 1000 nM,< 20000 nM
Cc1cn(C2(Cn3cc(O)c(=O)c(C(=O)NC(C)(C)C)n3)CCCC2)c2ncccc12 [Compound 792],< 100 nM,< 20000 nM
CNC(=O)c1nn(CC2(n3cc(C)c4cccnc43)CCCC2)cc(OC(=O)OC(C)C)c1=O [Compound 793],100 to 1000 nM,< 20000 nM
O=C(c1nn(CC2(n3cc(Cl)c4cccnc43)CCCC2)cc(O)c1=O)N1CCC1 [Compound 794],< 100 nM,< 20000 nM
CC(=O)c1nn(CC2(n3cc(C)c4cccnc43)CCCC2)cc(O)c1=O [Compound 795],100 to 1000 nM,< 20000 nM
CC1(C)CCC(Cn2cc(O)c(=O)c(C(=O)NCc3ccccc3)n2)(c2ccccc2)C1 (centres unmarked) [Compound 796],100 to 1000 nM,> 100000 nM
CC1(C)CCC(Cn2cc(O)c(=O)c(C(=O)NCc3ccc(F)c(Cl)c3)n2)(c2ccccc2)C1 (centres unmarked) [Compound 797],100 to 1000 nM,< 20000 nM
CC1(C)CC(Cn2cc(O)c(=O)c(C(=O)NCc3ccccc3)n2)(c2ccccc2)C1 [Compound 798],100 to 1000 nM,> 100000 nM
CC1(C)CC(Cn2cc(O)c(=O)c(C(=O)NCc3ccc(F)c(Cl)c3)n2)(c2ccccc2)C1 [Compound 799],< 100 nM,< 20000 nM
CNC(=O)c1nn(CC2(c3cc(F)cc(C(F)(F)F)c3)CCCC2)cc(O)c1=O [Compound 800],< 100 nM,< 20000 nM
CNC(=O)c1nn(CC2(n3cc(C)c4cccnc43)CCCC2)cc(OC(=O)OCC(C)(C)C)c1=O [Compound 801],< 100 nM,< 20000 nM
CNC(=O)c1nn(CC2(n3cc(C)c4cccnc43)CCCCC2)cc(OC(=O)OC(C)(C)C)c1=O [Compound 806],< 100 nM,< 20000 nM
O=C(NCc1ccccc1)c1nn(CC2(c3cccnc3)CCCC2)cc(O)c1=O [Compound 807],< 100 nM,< 20000 nM
CNC(=O)c1nn(CC2(n3ccc4cccc(C)c43)CCCC2)cc(O)c1=O [Compound 808],< 100 nM,< 20000 nM
O=C(NCc1ccc(F)c(Cl)c1)c1nn(CC2(c3ccncc3)CCCC2)cc(O)c1=O [Compound 809],< 100 nM,< 20000 nM
CNC(=O)c1nn(CC2(n3ccc4ccc(C)cc43)CCCC2)cc(O)c1=O [Compound 810],< 100 nM,< 20000 nM
O=C(NCc1ccccc1)c1nn(CC2(c3ccc(F)c(F)c3)CCCC2)cc(O)c1=O [Compound 812],< 100 nM,< 20000 nM

Compound,IC50 (EN PA),EC50 [1]
CNC(=O)c1nn(CC2(n3c4c(c5cccnc53)CCC4)CCCC2)cc(O)c1=O [Compound 813],< 100 nM,< 20000 nM
CNC(=O)c1nn(CC2(n3cc(C)c4cccnc43)CCC2)cc(O)c1=O [Compound 814],< 100 nM,< 20000 nM
CNC(=O)c1nn(CC2(n3ccc4cc(F)ccc43)CCCC2)cc(O)c1=O [Compound 816],< 100 nM,< 20000 nM
CNC(=O)c1nn(CC2(n3ccc4cc(Cl)cnc43)CCCC2)cc(O)c1=O [Compound 818],< 100 nM,< 20000 nM
CC(C)(C)NC(=O)c1nn(CC2(n3ccc4cc(F)ccc43)CCCC2)cc(O)c1=O [Compound 819],< 100 nM,< 20000 nM
Cc1cn(C2(Cn3cc(O)c(=O)c(C(=O)NC(C)(C)CO)n3)CCCC2)c2ncccc12 [Compound 820],< 100 nM,< 20000 nM
Cc1cn(C2(Cn3cc(O)c(=O)c(C(=O)NCC(C)C)n3)CCCC2)c2ncccc12 [Compound 821],< 100 nM,< 20000 nM
Cc1cn(C2(Cn3cc(O)c(=O)c(C(=O)NCC4(CO)CCCC4)n3)CCCC2)c2ncccc12 [Compound 822],< 100 nM,< 20000 nM
Cc1cn(C2(Cn3cc(O)c(=O)c(C(=O)NCC(C)(C)CO)n3)CCCC2)c2ncccc12 [Compound 823],< 100 nM,< 20000 nM
CNC(=O)c1nn(CC2(n3nc(C)c4ccccc43)CCCC2)cc(O)c1=O [Compound 824],100 to 1000 nM,< 20000 nM
O=C(NCc1ccccc1)c1nn(CC2(c3ccncc3)CCCC2)cc(O)c1=O [Compound 825],100 to 1000 nM,< 20000 nM
O=C1NCCCCCc2ccc3ccn(c3c2)C2(CCCC2)Cn2cc(O)c(=O)c1n2 [Compound 826],< 100 nM,< 20000 nM
CCC(=O)c1nn(CC2(n3cc(C)c4cccnc43)CCCC2)cc(O)c1=O [Compound 827],< 100 nM,< 20000 nM
CCNC(=O)c1nn(CC2(c3ccc4ccccc4c3)CCCC2)cc(O)c1=O [Compound 828],< 100 nM,< 20000 nM
CC(C)(C)NC(=O)c1nn(CC2(c3ccc4ccccc4c3)CCCC2)cc(O)c1=O [Compound 829],< 100 nM,< 20000 nM
CNC(=O)c1nn(CC2(c3cn(C)c4ccccc34)CCCC2)cc(O)c1=O [Compound 830],100 to 1000 nM,> 100000 nM
CNC(=O)c1nn(CC2(c3c[nH]c4ccccc34)CCCC2)cc(O)c1=O [Compound 831],100 to 1000 nM,> 100000 nM
O=C(NCc1ccccc1)c1nn(CC2(c3cncnc3)CCCC2)cc(O)c1=O [Compound 832],< 100 nM,> 100000 nM
Cc1cn(C2(Cn3cc(O)c(=O)c(C(=O)C(C)C)n3)CCCC2)c2ncccc12 [Compound 833],< 100 nM,< 20000 nM
CNC(=O)c1nn(CCN(c2ccccc2)c2ccccc2)cc(O)c1=O [Compound 834],100 to 1000 nM,> 100000 nM
CNC(=O)c1nn(CCn2c3ccccc3c3ccccc32)cc(O)c1=O [Compound 835],100 to 1000 nM,> 100000 nM
